Experimental data taken from ChEMBL document CHEMBL2074324, “Multidrug resistance P-glycoprotein hampers the access of cortisol but not of corticosterone to mouse and human brain” (Endocrinology, 2001).

Target: ATP-dependent translocase ABCB1 (Mus musculus, UniProt P21447)
Test: TP_TRANSPORTER: increase in brain concentration in mdr1a(-/-) mouse
Type: functional, organism-based
Conditions: in vivo

Sequence of ATP-dependent translocase ABCB1 (P21447 whole entry): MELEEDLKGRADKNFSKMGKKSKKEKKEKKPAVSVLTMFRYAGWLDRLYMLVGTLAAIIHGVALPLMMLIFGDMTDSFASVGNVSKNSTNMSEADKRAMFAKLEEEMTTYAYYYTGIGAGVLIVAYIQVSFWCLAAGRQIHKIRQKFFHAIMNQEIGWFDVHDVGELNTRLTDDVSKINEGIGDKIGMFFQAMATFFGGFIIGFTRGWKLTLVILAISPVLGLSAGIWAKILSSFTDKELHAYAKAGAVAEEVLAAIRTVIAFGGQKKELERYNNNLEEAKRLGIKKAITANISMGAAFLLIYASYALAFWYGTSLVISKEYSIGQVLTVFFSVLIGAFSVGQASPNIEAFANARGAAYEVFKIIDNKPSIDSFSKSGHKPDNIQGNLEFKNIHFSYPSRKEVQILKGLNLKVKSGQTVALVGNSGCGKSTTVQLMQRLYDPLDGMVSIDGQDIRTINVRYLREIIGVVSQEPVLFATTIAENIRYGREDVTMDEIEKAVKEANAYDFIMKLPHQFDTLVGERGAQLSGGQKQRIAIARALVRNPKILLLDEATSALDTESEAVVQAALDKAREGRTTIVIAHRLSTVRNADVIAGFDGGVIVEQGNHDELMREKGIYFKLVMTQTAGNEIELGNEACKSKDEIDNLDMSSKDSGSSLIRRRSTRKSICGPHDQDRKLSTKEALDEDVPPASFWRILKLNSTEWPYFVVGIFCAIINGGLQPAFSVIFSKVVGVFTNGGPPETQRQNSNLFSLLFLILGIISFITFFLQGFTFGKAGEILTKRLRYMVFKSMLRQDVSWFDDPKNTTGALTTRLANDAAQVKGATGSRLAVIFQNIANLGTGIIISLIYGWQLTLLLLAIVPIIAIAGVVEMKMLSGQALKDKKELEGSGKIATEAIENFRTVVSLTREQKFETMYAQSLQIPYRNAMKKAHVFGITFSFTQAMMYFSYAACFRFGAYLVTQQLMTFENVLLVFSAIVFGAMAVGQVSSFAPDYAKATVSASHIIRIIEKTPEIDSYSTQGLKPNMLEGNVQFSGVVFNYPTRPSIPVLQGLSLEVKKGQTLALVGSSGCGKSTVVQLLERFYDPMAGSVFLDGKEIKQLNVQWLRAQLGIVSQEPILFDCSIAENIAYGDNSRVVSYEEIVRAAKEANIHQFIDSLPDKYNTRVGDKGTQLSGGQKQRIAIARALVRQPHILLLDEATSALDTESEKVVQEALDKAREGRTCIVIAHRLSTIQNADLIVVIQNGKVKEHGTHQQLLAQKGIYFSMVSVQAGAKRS

Activity: substrate [+]
SMILES: C[C@]12CCC(=O)C=C1CC[C@@H]1[C@@H]2[C@@H](O)C[C@@]2(C)[C@H]1CC[C@]2(O)C(=O)CO [HYDROCORTISONE]
